The IC50 is the point on the concentration scale where inhibition reaches its midpoint. The viability, T/C is the ratio of treated to control.

Where “and” joins values, the source holds several entries; their conditions need not be identical. Identical values can stand only once.

In PubChem BioAssay AID1963441 (Molecular Pharmacology Branch, DTP, NCI, 2024) one finds IC50 and viability, T/C data, which are given here for five compounds.

For the assay, the system named is NCI-H1876 complex spheroid growth, % test/control. In words: Anticancer human tumor NCI-H1876 cell line growth inhibition [Asc].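 On all read-outs here: compound exposure lasted 7 days starting three days after seeding.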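 On viability, T/C: 100% = DMSO vehicle control wells.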 The conditions noted are these: for viability, T/C: stronger effect = lower value. In short, it runs like this:
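Tumor cells were grown as complex spheroids with human endothelial cells (HUVEC) and human mesenchymal stem cells as stroma. Agents were tested alone and in combination, in half-log steps down from the clinical Cmax, or from 10 microM where Cmax was unknown.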

`CNC(C)C(=O)NC1CN(S(=O)(=O)c2cccc(S(=O)(=O)N3CCC4CCC(C(=O)NC(c5ccccc5)c5ccccc5)N4C(=O)C(NC(=O)C(C)NC)C3)c2)CCC2CCC(C(=O)NC(c3ccccc3)c3ccccc3)N2C1=O` (stereo not drawn) + CCN1C(C(=O)NC23CCC(C(=O)O)(CC2)CC3)C(c2cccc(Cl)c2F)C2(C(=O)Nc3cc(Cl)ccc32)C12CCCCC2: the IC50 by setting is: (curve of first compound, second compound 0.00949 µM) above 1000 nM; (curve of first compound, second compound 0.03 µM) above 1000 nM; (curve of first compound, second compound 0.0949 µM) above 1000 nM; (curve of first compound, second compound 0.3 µM) above 1000 nM; (curve of first compound, second compound 0.949 µM) above 1000 nM; (curve of first compound, second compound 3 µM) above 1000 nM. In addition, the viability, T/C was 101% (second compound 0.00949 µM, first compound 0.00316 µM); 99.6% (second compound 0.00949 µM, first compound 0.01 µM); 101% (second compound 0.00949 µM, first compound 0.0316 µM); 100% (second compound 0.00949 µM, first compound 0.1 µM); 116% (second compound 0.00949 µM, first compound 0.316 µM); 102% (second compound 0.00949 µM, first compound 1 µM). Besides, the viability, T/C is, setting by setting: (second compound 0.03 µM, first compound 0.00316 µM) 103%; (second compound 0.03 µM, first compound 0.01 µM) 96.7%; (second compound 0.03 µM, first compound 0.0316 µM) 98.8%; (second compound 0.03 µM, first compound 0.1 µM) 98.4%; (second compound 0.03 µM, first compound 0.316 µM) 115%; (second compound 0.03 µM, first compound 1 µM) 97%. Moreover, the viability, T/C was 111% (second compound 0.0949 µM, first compound 0.00316 µM); 104% (second compound 0.0949 µM, first compound 0.01 µM); 106% (second compound 0.0949 µM, first compound 0.0316 µM); 106% (second compound 0.0949 µM, first compound 0.1 µM); 98.5% (second compound 0.0949 µM, first compound 0.316 µM); 110% (second compound 0.0949 µM, first compound 1 µM). The viability, T/C runs as follows: (second compound 0.3 µM, first compound 0.00316 µM) 103%; (second compound 0.3 µM, first compound 0.01 µM) 108%; (second compound 0.3 µM, first compound 0.0316 µM) 108%; (second compound 0.3 µM, first compound 0.1 µM) 108%; (second compound 0.3 µM, first compound 0.316 µM) 118%; (second compound 0.3 µM, first compound 1 µM) 103%. Besides, the viability, T/C is, setting by setting: (second compound 0.949 µM, first compound 0.00316 µM) 114%; (second compound 0.949 µM, first compound 0.01 µM) 119%; (second compound 0.949 µM, first compound 0.0316 µM) 106%; (second compound 0.949 µM, first compound 0.1 µM) 119%; (second compound 0.949 µM, first compound 0.316 µM) 115%; (second compound 0.949 µM, first compound 1 µM) 112%. Further, the viability, T/C (second compound 3 µM, first compound 0.00316 µM) is 114%; the viability, T/C (second compound 3 µM, first compound 0.01 µM) was 108%; the viability, T/C (second compound 3 µM, first compound 0.0316 µM) is 107%; the viability, T/C (second compound 3 µM, first compound 0.1 µM) is 99.5%; the viability, T/C (second compound 3 µM, first compound 0.316 µM) was 110%; the viability, T/C (second compound 3 µM, first compound 1 µM) is 109%.

In the case of `Cc1nc(N2CCC3(CC2)COC(C)C3N)c(CO)nc1Sc1ccnc(N)c1Cl` (stereo not drawn) + Cc1c(S(C)(=O)=O)c(-c2cc(F)cc(N3CCN(c4ccc(NS(=O)(=O)c5ccc(NC(CCN6CCC(C(=O)OCCCP(=O)(O)O)CC6)CSc6ccccc6)c(S(=O)(=O)C(F)(F)F)c5)cc4)CC3)c2)c(-c2ccc(Cl)cc2)n1C(C)C, the IC50 by setting is: (curve of first compound, second compound 0.0316 µM) above 3000 nM; (curve of first compound, second compound 0.1 µM) above 3000 nM; (curve of first compound, second compound 0.316 µM) above 3000 nM; (curve of first compound, second compound 1 µM) above 3000 nM; (curve of first compound, second compound 3.16 µM) above 3000 nM; (curve of first compound, second compound 10 µM) above 3000 nM. Besides, the viability, T/C (second compound 0.0316 µM, first compound 0.00949 µM) was 106%; the viability, T/C (second compound 0.0316 µM, first compound 0.03 µM) is 86.8%; the viability, T/C (second compound 0.0316 µM, first compound 0.0949 µM) was 90.2%; the viability, T/C (second compound 0.0316 µM, first compound 0.3 µM) is 78.7%; the viability, T/C (second compound 0.0316 µM, first compound 0.949 µM) was 83.2%; the viability, T/C (second compound 0.0316 µM, first compound 3 µM) was 79.4%. For the same compound, the viability, T/C is, setting by setting: (second compound 0.1 µM, first compound 0.00949 µM) 95.7%; (second compound 0.1 µM, first compound 0.03 µM) 101%; (second compound 0.1 µM, first compound 0.0949 µM) 93.7%; (second compound 0.1 µM, first compound 0.3 µM) 88%; (second compound 0.1 µM, first compound 0.949 µM) 84.2%; (second compound 0.1 µM, first compound 3 µM) 82.6%. Also, the viability, T/C (second compound 0.316 µM, first compound 0.00949 µM) is 81.8%; the viability, T/C (second compound 0.316 µM, first compound 0.03 µM) is 89.7%; the viability, T/C (second compound 0.316 µM, first compound 0.0949 µM) was 92.2%; the viability, T/C (second compound 0.316 µM, first compound 0.3 µM) is 75.7%; the viability, T/C (second compound 0.316 µM, first compound 0.949 µM) was 88.4%; the viability, T/C (second compound 0.316 µM, first compound 3 µM) is 81.6%. The viability, T/C (second compound 1 µM, first compound 0.00949 µM) was 94.2%; the viability, T/C (second compound 1 µM, first compound 0.03 µM) was 92%; the viability, T/C (second compound 1 µM, first compound 0.0949 µM) was 81.5%; the viability, T/C (second compound 1 µM, first compound 0.3 µM) was 83.8%; the viability, T/C (second compound 1 µM, first compound 0.949 µM) was 93.7%; the viability, T/C (second compound 1 µM, first compound 3 µM) is 74.2%. Besides, the viability, T/C runs as follows: (second compound 3.16 µM, first compound 0.00949 µM) 90.1%; (second compound 3.16 µM, first compound 0.03 µM) 88.7%; (second compound 3.16 µM, first compound 0.0949 µM) 83.7%; (second compound 3.16 µM, first compound 0.3 µM) 84.9%; (second compound 3.16 µM, first compound 0.949 µM) 83.3%; (second compound 3.16 µM, first compound 3 µM) 80.7%. The viability, T/C is 103% (second compound 10 µM, first compound 0.00949 µM); 88.8% (second compound 10 µM, first compound 0.03 µM); 85.3% (second compound 10 µM, first compound 0.0949 µM); 92.4% (second compound 10 µM, first compound 0.3 µM); 96.7% (second compound 10 µM, first compound 0.949 µM); 70.3% (second compound 10 µM, first compound 3 µM).

Take `COc1c(OCCCN2CCOCC2)ccc2c3n(c(=NC(=O)c4cnc(N)nc4)nc12)CCN3`: the viability, T/C reads like this: (compound 0.00316 µM) 106% and 91.5% and 100%; (compound 0.01 µM) 89.7% and 97.9% and 107%; (compound 0.0316 µM) 85% and 84.5% and 99.3%; (compound 0.1 µM) 79.1% and 75.3% and 72%; (compound 0.316 µM) 64.5% and 59.5% and 60.7%; (compound 1 µM) 48.8% and 45.6% and 44.9%. Further, the IC50 (curve of compound) was 724 nM and 679 nM and 992 nM.

Turning to `CCN1C(C(=O)NC23CCC(C(=O)O)(CC2)CC3)C(c2cccc(Cl)c2F)C2(C(=O)Nc3cc(Cl)ccc32)C12CCCCC2` (stereo not drawn), the viability, T/C is 109% [middle of 9 runs] (compound 0.00949 µM), 103% [middle of 9 runs] (compound 0.0949 µM) and 107% [middle of 9 runs] (compound 3 µM). Further, the IC50 (compound alone, run of 11/07/2022) was above 3000 nM and the 50% inhibitory concentration (IC50) (curve of compound) is above 3000 nM.

With `O=C(c1cc(Cc2n[nH]c(=O)c3ccccc23)ccc1F)N1CCN(C(=O)C2CC2)CC1`, the viability, T/C (compound 0.0316 µM) is 94.3% and 103% and 108%; the viability, T/C (compound 0.1 µM) is 84.8% and 92.7% and 94%; the viability, T/C (compound 0.316 µM) is 105% and 102% (2×); the viability, T/C (compound 1 µM) is 115% and 118% and 99.5%; the viability, T/C (compound 3.16 µM) was 96.9% and 121% and 98.1%; the viability, T/C (compound 10 µM) was 75.5% and 85.2% and 68.7%. Also, the IC50 (curve of compound) is above 10000 nM.
